Experimental data taken from the CheMixHub viscosity set.

Test: xn = mol fraction of the nth substance listed

C=CC#N + CCCCO
viscosity [mPa·s], 101.33 kPa
Settings | x1 = 0.1054 | x1 = 0.2059 | x1 = 0.305 | x1 = 0.4063 | x1 = 0.5073 | x1 = 0.6039 | x1 = 0.6962 | x1 = 0.8074 | x1 = 0.9006
298.15 K | 1.797 | 1.363 | 1.065 | 0.849 | 0.69 | 0.581 | 0.499 | 0.429 | 0.386
303.15 K | 1.596 | 1.221 | 0.965 | 0.776 | 0.637 | 0.539 | 0.468 | 0.407 | 0.369
308.15 K | 1.424 | 1.102 | 0.881 | 0.714 | 0.594 | 0.505 | 0.442 | 0.385 | 0.352

CC(=O)CC(C)=O + CCCCO
303.15 K, 101 kPa
Settings | viscosity [mPa·s]
x1 = 0.0509 | 1.941
x1 = 0.1003 | 1.7
x1 = 0.3007 | 1.142
x1 = 0.5004 | 0.887
x1 = 0.7 | 0.751
x1 = 0.8998 | 0.692
x1 = 0.9504 | 0.678

CC(C)(C)Br + CCCCO
viscosity [mPa·s], 101.3 kPa
Settings | x1 = 0.0518 | x1 = 0.106 | x1 = 0.2079 | x1 = 0.3109 | x1 = 0.4067 | x1 = 0.5054 | x1 = 0.6023 | x1 = 0.7004 | x1 = 0.7993 | x1 = 0.901
298.15 K | 2.264 | 2.002 | 1.638 | 1.377 | 1.203 | 1.055 | 0.9468 | 0.8591 | 0.7905 | 0.7428
313.15 K | 1.575 | 1.41 | 1.19 | 1.02 | 0.9075 | 0.8127 | 0.7355 | 0.6723 | 0.6264 | 0.5951

CCCCN(CCCC)CCCC + CCCCO
viscosity [mPa·s]
Settings | 303.15 K | 313.15 K
101 kPa, x1 = 0.007767 | 2.245 | –
101 kPa, x1 = 0.01457 | 2.236 | –
101 kPa, x1 = 0.02285 | 2.226 | –
101 kPa, x1 = 0.03362 | 2.211 | –
101 kPa, x1 = 0.04436 | 2.197 | –
101 kPa, x1 = 0.04946 | 2.191 | –
101 kPa, x1 = 0.05954 | 2.178 | –
101 kPa, x1 = 0.07271 | 2.16 | –
101 kPa, x1 = 0.08924 | 2.138 | –
101.3 kPa, x1 = 0.0942 | 2.159 | 1.71
101.3 kPa, x1 = 0.1897 | 2.028 | 1.608
101.3 kPa, x1 = 0.3149 | 1.877 | 1.481
101.3 kPa, x1 = 0.4192 | 1.766 | 1.393
101.3 kPa, x1 = 0.5187 | 1.65 | 1.311
101.3 kPa, x1 = 0.618 | 1.542 | 1.231
101.3 kPa, x1 = 0.7149 | 1.448 | 1.154
101.3 kPa, x1 = 0.8007 | 1.365 | 1.102
101.3 kPa, x1 = 0.9031 | 1.256 | 1.047

CCCCOC(=O)c1ccccc1C(=O)OCCCC + CCCCO
303.15 K, 101.33 kPa
Settings | viscosity [mPa·s]
x1 = 0.1016 | 2.585
x1 = 0.1991 | 3.095
x1 = 0.2997 | 3.757
x1 = 0.4016 | 4.553
x1 = 0.5004 | 5.431
x1 = 0.5969 | 6.463
x1 = 0.6966 | 7.645
x1 = 0.8044 | 9.216
x1 = 0.8662 | 10.27

CN(C)c1ccccc1 + CCCCO
303.15 K, 101 kPa
Settings | viscosity [mPa·s]
x1 = 0.0489 | 2.2
x1 = 0.0742 | 2.187
x1 = 0.1249 | 2.156
x1 = 0.1802 | 2.12
x1 = 0.2362 | 2.079
x1 = 0.265 | 2.056
x1 = 0.2944 | 2.032
x1 = 0.3549 | 1.978
x1 = 0.419 | 1.915
x1 = 0.4854 | 1.844
x1 = 0.5905 | 1.722
x1 = 0.7423 | 1.526
x1 = 0.9099 | 1.295

C=CC#N + CCCCOC(C)=O
viscosity [mPa·s]
Settings | 298.15 K | 303.15 K | 308.15 K
101.3 kPa, x1 = 0.0988 | – | 0.6248 | –
101.3 kPa, x1 = 0.2033 | – | 0.5998 | –
101.3 kPa, x1 = 0.3022 | – | 0.5737 | –
101.3 kPa, x1 = 0.401 | – | 0.5437 | –
101.3 kPa, x1 = 0.4962 | – | 0.5133 | –
101.3 kPa, x1 = 0.5941 | – | 0.4775 | –
101.3 kPa, x1 = 0.6991 | – | 0.4364 | –
101.3 kPa, x1 = 0.7966 | – | 0.3951 | –
101.3 kPa, x1 = 0.8992 | – | 0.3527 | –
101.33 kPa, x1 = 0.099 | 0.651 | 0.607 | 0.571
101.33 kPa, x1 = 0.1971 | 0.626 | 0.582 | 0.547
101.33 kPa, x1 = 0.2999 | 0.596 | 0.553 | 0.522
101.33 kPa, x1 = 0.404 | 0.561 | 0.524 | 0.494
101.33 kPa, x1 = 0.5006 | 0.526 | 0.49 | 0.464
101.33 kPa, x1 = 0.5992 | 0.488 | 0.458 | 0.433
101.33 kPa, x1 = 0.7004 | 0.449 | 0.421 | 0.398
101.33 kPa, x1 = 0.8014 | 0.412 | 0.384 | 0.365
101.33 kPa, x1 = 0.9031 | 0.374 | 0.349 | 0.33

CCCCN(CCCC)CCCC + CCCCOCCO
viscosity [mPa·s], 100 kPa
Settings | 298.15 K | 303.15 K | 308.15 K
x2 = 0.05 | 1.31 | 1.19 | 1.12
x2 = 0.1004 | 1.37 | 1.23 | 1.15
x2 = 0.1502 | 1.43 | 1.28 | 1.19
x2 = 0.2006 | 1.49 | 1.33 | 1.23
x2 = 0.2999 | 1.62 | 1.43 | 1.32
x2 = 0.3999 | 1.76 | 1.54 | 1.43
x2 = 0.5046 | 1.93 | 1.69 | 1.55
x2 = 0.6 | 2.1 | 1.83 | 1.67
x2 = 0.7 | 2.29 | 1.99 | 1.8
x2 = 0.8 | 2.5 | 2.16 | 1.96
x2 = 0.8997 | 2.7 | 2.36 | 2.14
x2 = 0.9498 | 2.79 | 2.43 | 2.21

CN(C)c1ccccc1 + CCCCOCCO
viscosity [mPa·s], 101.3 kPa
Settings | x2 = 0.0991 | x2 = 0.2007 | x2 = 0.3163 | x2 = 0.3988 | x2 = 0.4955 | x2 = 0.5977 | x2 = 0.6989 | x2 = 0.7971 | x2 = 0.8968
298 K | 1.298 | 1.369 | 1.479 | 1.586 | 1.715 | 1.88 | 2.076 | 2.281 | 2.555
303 K | 1.184 | 1.245 | 1.338 | 1.42 | 1.524 | 1.666 | 1.825 | 2.002 | 2.23
308 K | 1.096 | 1.14 | 1.221 | 1.291 | 1.384 | 1.501 | 1.643 | 1.79 | 1.991
313 K | 1.022 | 1.063 | 1.129 | 1.186 | 1.266 | 1.369 | 1.486 | 1.617 | 1.781
318 K | 0.947 | 0.984 | 1.041 | 1.089 | 1.156 | 1.217 | 1.346 | 1.459 | 1.601

O=C1c2ccccc2C(=O)C1(O)O + CCCC[N+](CCCC)(CCCC)CCCC.O=S(=O)([O-])O
Settings | viscosity [mPa·s]
323.15 K, 100 kPa, x2 = 0.571 | 48500
